Tests used:
Plasmodium falciparum [1] = assay: Antimalarial activity against multi-drug-resistant Plasmodium falciparum W2 infected in human type A+ erythrocytes assessed as growth inhibition after 72 hrs by SYBR Green I assay; assay type: functional, organism-based; conditions: W2, 72 h
[2] = Cytotoxicity index, ratio of EC50 for mouse J774 cells to EC50 for multi-drug-resistant Plasmodium falciparum TM90-C2B infected in human type A+ erythrocytes; assay type: toxicity, cell-based; conditions: read-out: Ratio EC50
J774 = assay: Cytotoxicity against mouse J774 cells after 72 hrs by CellTiter 96 assay; assay type: cell-based; conditions: J774, 72 h
Plasmodium falciparum [3] = assay: Antimalarial activity against multi-drug-resistant Plasmodium falciparum TM90-C2B infected in human type A+ erythrocytes assessed as growth inhibition after 72 hrs by SYBR Green I assay; assay type: functional, organism-based
[4] = Resistance index, ratio of EC50 for multi-drug-resistant Plasmodium falciparum TM90-C2B infected in human type A+ erythrocytes to EC50 for multi-drug-resistant Plasmodium falciparum W2 infected in human type A+ erythrocytes; assay type: functional
[5] = octanol/water, pH 7.4

For `COC(=O)c1ccc(-c2c(C)[nH]c3cc(OC)c(Cl)cc3c2=O)cc1`, the EC50 (Plasmodium falciparum [1]) was 22.5 nM, the selectivity ratio [2] was greater than 1080 and the EC50 (J774) was greater than 27900 nM. For the same molecule, the EC50 (Plasmodium falciparum [3]) was 26 nM and the “Ratio EC50” value [4] was 1.16.
Molecule `COc1cc2[nH]c(C)c(-c3ccc(N(C)C)cc3)c(=O)c2cc1Cl` has an EC50 (Plasmodium falciparum [1]) of 60.7 nM, a selectivity ratio [2] greater than 1900 and an EC50 (Plasmodium falciparum [3]) of 15.3 nM. The “Ratio EC50” value [4] was 0.25.
With `COc1cc2[nH]c(C)c(-c3ccc(S(=O)(=O)N(C)C)cc3)c(=O)c2cc1Cl` the EC50 (Plasmodium falciparum [1]) was 1890 nM, the selectivity ratio [2] was greater than 162 and the EC50 (J774) was greater than 24600 nM. For the same molecule, the EC50 (Plasmodium falciparum [3]) was 152 nM and the “Ratio EC50” value [4] was 0.08.
Molecule `COc1cc2[nH]c(C)c(-c3ccc(O)cc3)c(=O)c2cc1Cl` has an EC50 (Plasmodium falciparum [1]) of 2860 nM, a selectivity ratio [2] greater than 67.8 and an EC50 (J774) greater than 31700 nM. For the same molecule, the EC50 (Plasmodium falciparum [3]) was 467 nM and the “Ratio EC50” value [4] was 0.16.
Work on `COc1cc2[nH]c(C)c(-c3ccccc3CO)c(=O)c2cc1Cl` yielded an EC50 (Plasmodium falciparum [1]) of 258 nM, a selectivity ratio [2] greater than 109 and an EC50 (J774) greater than 30300 nM. For the same molecule, the EC50 (Plasmodium falciparum [3]) was 277 nM and the “Ratio EC50” value [4] was 1.08.
In the case of `COc1cc2[nH]c(C)c(-c3cccc(CO)c3)c(=O)c2cc1Cl`, the EC50 (Plasmodium falciparum [1]) is reported as 5400 nM, the selectivity ratio [2] is reported as greater than 36.6 and the EC50 (J774) is reported as greater than 30300 nM. For the same molecule, the EC50 (Plasmodium falciparum [3]) was 829 nM and the “Ratio EC50” value [4] was 0.15.
Work on `COc1cc2[nH]c(C)c(-c3ccc(OCc4ccccc4)cc3)c(=O)c2cc1Cl` yielded an EC50 (Plasmodium falciparum [1]) of 10.6 nM, a selectivity ratio [2] greater than 19300 and an EC50 (J774) greater than 24600 nM. For the same molecule, the EC50 (Plasmodium falciparum [3]) was 1.28 nM and the “Ratio EC50” value [4] was 0.12.
With `COc1cc2[nH]c(C)c(-c3ccc(COc4ccccc4)cc3)c(=O)c2cc1Cl` the EC50 (Plasmodium falciparum [1]) was 1.3 nM, the EC50 (Plasmodium falciparum [3]) was 0.638 nM and the “Ratio EC50” value [4] was 0.49.
Work on `COc1cc2[nH]c(C)c(-c3c(F)cccc3F)c(=O)c2cc1Cl` yielded an EC50 (Plasmodium falciparum [1]) of 35.7 nM, a selectivity ratio [2] greater than 3450 and an EC50 (J774) greater than 29800 nM. For the same molecule, the EC50 (Plasmodium falciparum [3]) was 8.64 nM and the “Ratio EC50” value [4] was 0.24.
`COc1cc2[nH]c(C)c(-c3cc(C(F)(F)F)cc(C(F)(F)F)c3)c(=O)c2cc1Cl` showed an EC50 (Plasmodium falciparum [1]) of 1680 nM, a selectivity ratio [2] greater than 51.1 and an EC50 (J774) greater than 22900 nM. The EC50 (Plasmodium falciparum [3]) was 449 nM and the “Ratio EC50” value [4] was 0.27.
For `COc1cc2[nH]c(C)c(-c3ccc(C(F)(F)F)cc3F)c(=O)c2cc1Cl`, the EC50 (Plasmodium falciparum [1]) was 21.4 nM, the selectivity ratio [2] was greater than 2500 and the EC50 (J774) was greater than 25900 nM. For the same molecule, the EC50 (Plasmodium falciparum [3]) was 10.4 nM and the “Ratio EC50” value [4] was 0.48.
Work on `CCOc1cc(-c2c(C)[nH]c3cc(OC)c(Cl)cc3c2=O)ccc1F` yielded an EC50 (Plasmodium falciparum [1]) of 194 nM, a selectivity ratio [2] greater than 1070 and an EC50 (J774) greater than 27600 nM. The EC50 (Plasmodium falciparum [3]) was 25.8 nM and the “Ratio EC50” value [4] was 0.13.
Molecule `COc1cc2[nH]c(C)c(-c3ccc(OC)c(F)c3F)c(=O)c2cc1Cl` has an EC50 (Plasmodium falciparum [1]) of 157 nM, a selectivity ratio [2] greater than 67.8 and an EC50 (J774) greater than 27300 nM. The EC50 (Plasmodium falciparum [3]) was 403 nM and the “Ratio EC50” value [4] was 2.57.
Molecule `COc1cc2[nH]c(C)c(-c3ccccc3OC(F)(F)F)c(=O)c2cc1Cl` has an EC50 (Plasmodium falciparum [1]) of 443 nM, a selectivity ratio [2] greater than 15.8 and an EC50 (J774) greater than 30200 nM. For the same molecule, the EC50 (Plasmodium falciparum [3]) was 1910 nM and the “Ratio EC50” value [4] was 4.32.
With `COc1cc2[nH]c(C)c(-c3ccc(OCc4ccc(F)cc4)cc3)c(=O)c2cc1Cl` the EC50 (Plasmodium falciparum [1]) was 5.18 nM, the EC50 (J774) was greater than 23600 nM and the EC50 (Plasmodium falciparum [3]) was 1.56 nM.
In the case of `C(=C\c1ccccc1)/CN1CCN(C(c2ccccc2)c2ccccc2)CC1` [CINNARIZINE], the logD [5] is reported as 5.68.
Work on `CC(C)(C)NCC(O)COc1cccc2c1CC(O)C(O)C2` (stereo not drawn) [NADOLOL] yielded a logD [5] of 0.68.
With `Cn1c(=O)c2[nH]cnc2n(C)c1=O.O` [THEOPHYLLINE] the logD [5] was -5.

From ChEMBL document CHEMBL3351419, “Orally bioavailable 6-chloro-7-methoxy-4(1H)-quinolones efficacious against multiple stages of Plasmodium” (J Med Chem, 2014)
